Values quoted from earlier work as cited in US20220401378A1, “COMPOSITIONS COMPRISING FUNCTIONAL FRAGRANCES AND CANNABIS-DERIVED COMPOUNDS” (THIS WORKS PRODUCTS LIMITED, priority 2020, published 2022).

System: anxiety

C=C[C@](C)(O)CCC=C(C)C [R-(−)-linalool]
effectiveness in reducing anxiety compared with trazodone hydrochloride: as effective as the trazodone hydrochloride in reducing anxiety

C=C[C@@](C)(O)CCC=C(C)C [S-(+)-linalool]
effectiveness in reducing anxiety compared with trazodone hydrochloride: as effective as the trazodone hydrochloride in reducing anxiety
